The CheMixHub drug solubility set

Experiment: xn = mol fraction of the nth substance listed, in the solute-free solvent

CC(=O)Oc1cccc2c1C(=O)c1c(OC(C)=O)cc(C(=O)O)cc1C2=O + CCOC(C)=O + CCO
solubility (g/100 g solution)
Conditions	273.15 K	278.15 K	283.15 K	288.15 K	293.15 K	298.15 K	303.15 K	308.15 K	313.15 K
x2 = 0.05491	0.00668	0.0091	0.0121	0.016	0.0207	0.0262	0.0328	0.04	0.0477
x2 = 0.1156	0.00776	0.0107	0.0144	0.0188	0.0241	0.0303	0.0382	0.0464	0.0564
x2 = 0.1831	0.015	0.0183	0.022	0.0265	0.0324	0.0391	0.0465	0.0555	0.0662
x2 = 0.2585	0.0202	0.0259	0.0317	0.0381	0.045	0.0534	0.0632	0.0734	0.0846
x2 = 0.3434	0.0268	0.0331	0.0402	0.0487	0.0574	0.067	0.078	0.0898	0.103
x2 = 0.4396	0.033	0.0398	0.0471	0.0563	0.0659	0.0773	0.0893	0.103	0.118
x2 = 0.5496	0.0337	0.0411	0.0496	0.0593	0.0698	0.0813	0.0934	0.109	0.125
x2 = 0.6765	0.0349	0.0419	0.0506	0.0609	0.0723	0.0849	0.0975	0.112	0.127
x2 = 0.8247	0.0222	0.0276	0.0334	0.0401	0.048	0.0562	0.0655	0.0763	0.087

O=C1CCC(C(=O)N2CSCC2C(=O)O)N1 (configuration not stated) + CO + CC(C)=O
solubility (g/100 g solution)
Conditions	278.15 K	283.15 K	288.15 K	293.15 K	298.15 K	303.15 K	308.15 K	313.15 K	318.15 K	323.15 K
x2 = 0.1676	0.03	0.0418	0.06	0.08	0.115	0.159	0.227	0.34	0.497	0.708
x2 = 0.3118	0.045	0.0699	0.101	0.147	0.241	0.346	0.532	0.773	1.12	1.54
x2 = 0.4372	0.0669	0.0956	0.145	0.224	0.317	0.432	0.62	–	1.24	1.72
x2 = 0.5471	0.74	0.834	0.94	1.08	1.19	1.33	1.48	1.67	1.88	2.12
x2 = 0.6444	0.813	0.929	1.04	1.2	1.37	1.58	1.81	2.07	2.37	2.73
x2 = 0.7311	0.964	1.09	1.21	1.38	1.56	1.76	1.99	2.24	2.54	2.94
x2 = 0.8087	1.07	1.14	1.29	1.48	1.69	1.92	2.19	2.49	2.82	3.21
x2 = 0.8788	1.02	1.15	1.28	1.48	1.69	1.92	2.18	2.49	2.81	3.18
x2 = 0.9422	0.998	1.13	1.25	1.42	1.64	1.87	2.14	2.43	2.77	3.13

CC(=O)Oc1cccc2c1C(=O)c1c(OC(C)=O)cc(C(=O)O)cc1C2=O + CC(=O)N(C)C + O
solubility (g/100 g solution)
Conditions	x2 = 0.02247	x2 = 0.04917	x2 = 0.08143	x2 = 0.1212	x2 = 0.1714	x2 = 0.2368	x2 = 0.3255	x2 = 0.4528	x2 = 0.6506
278.15 K	0.00282	0.0125	0.0358	0.0823	0.255	0.368	0.38	0.452	0.496
283.15 K	0.00402	0.0162	0.0459	0.107	0.313	0.441	0.521	0.622	0.691
288.15 K	0.00537	0.0204	0.0587	0.137	0.374	0.525	0.683	0.821	0.927
293.15 K	0.00727	0.0256	0.0748	0.173	0.444	0.633	0.885	1.07	1.18
298.15 K	0.00929	0.0324	0.0937	0.219	0.532	0.779	1.12	1.35	1.47
303.15 K	0.0112	0.0405	0.119	0.274	0.633	0.95	1.38	1.69	1.81
308.15 K	0.0139	0.0502	0.149	0.343	0.746	1.16	1.7	2.1	2.29
313.15 K	0.0168	0.0643	0.184	0.429	0.862	1.44	2.04	2.54	2.83
